# Reference: patent US20240052423A1, “METHODS OF IDENTIFYING A TUMOR THAT IS SENSITIVE TO TREATMENT WITH TALAZOPARIB AND METHODS OF TREATMENT THEREOF” (PFIZER INC., priority 2020, published 2024)
# Legend:
# Assay type in all cases: in vivo, human
# [1] = test system: HER2-negative advanced breast cancer or other solid tumors with a mutation in homologous recombination; test: Phase II clinical trial of talazoparib, best response by RECIST v.1.1, combined cohorts
# Method: (§1) A phase II clinical trial of the PARP inhibitor talazoparib in BRCA1 and BRCA2 wild-type patients with HER2-negative advanced breast cancer or other solid tumors with a mutation in homologous recombination was conducted as shown in FIG. 1. Eligible patients were adults (≥18 years old) with HER2-negative advanced or metastatic breast cancer that had progressed on at least 1 prior line of therapy for metastatic disease. Eligible patients also included adults (≥18 years old) with advanced or metastatic solid tumors beyond breast cancer that had progressed on at least one prior line of therapy. Patients were required to have no pathogenic mutations in either BRCA1 or BRCA2 genes on germline or somatic testing. They were required to have a pathogenic or likely pathogenic mutation in a HR-pathway associated gene detected on multiplex germline or somatic testing. These genes include: PALB2, CHEK2, ATM, NBN, BARD1, BRIP1, RAD50, RAD51C, RAD51D, MRE11, ATR, PTEN, Fanconi anemia complementation group of genes (FANCA, FANCC, FANCD2, FANCE, FANCF, FANCG, FANCL), plus other HR-related genes at the discretion of the primary investigators. Measurable disease by RECIST version 1.1 was required. There was no upper limit on the number of prior systemic therapies allowed prior to study entry. Patients were not allowed to have progressed during therapy with a platinum agent or within 8 weeks of discontinuing a platinum agent. Subjects were required to have an Eastern Cooperative Oncology Group (ECOG) performance status (PS) of 0-2 and adequate organ function based on screening laboratory values of liver, renal and hematologic parameters. The ability to take oral medications was required. Sexually active patients of childbearing potential were mandated to use contraception and females of childbearing age were tested for pregnancy at screening; females were not permitted to participate if pregnant or nursing and were tested for pregnancy at screening. Patients were excluded if they previously took any PARP inhibitor, had taken any anti-cancer therapy within 21-days of study entry, received radiation therapy within 14 days of study entry, had active brain metastasis requiring treatment or leptomeningeal disease. Patients with human immunodeficiency virus infection or active hepatitis C or hepatitis B viral infections were excluded. Also, patients requiring prolonged hospitalization, major surgery or receiving other investigational agent within 21 days prior to study entry were excluded. Additional key exclusion criteria were: other medical co-morbidity likely to interfere with study participation eg. infection grade ≥3 CTCAE version 4, or requiring parenteral antibiotics within 7 days, or known hypersensitivity to talazoparib. Talazoparib was administered at 1 mg orally daily continuously, taken whole, at approximately the same time each day. Treatment cycles lasted 28 days. Patients were evaluated on day 1 of each treatment cycle by physician assessment including medical history, physical examination, laboratory values (complete blood count (CBC) and comprehensive metabolic panel), vital signs, ECOG PS assessment and urine pregnancy test (for women of childbearing age only). Day 14 physician assessment was required for the first cycle and CBCs were required weekly for the first cycle, then prior to start of each subsequent cycle. Treatment continued until disease progressed or unacceptable toxicity. Safety was assessed at each physician visit and monitored continuously by laboratory values, patient reporting and patient diary. Adverse events (AEs) and severe AEs (SAEs) were graded according to CTCAE version 4.0. SAEs grade ≥3 were reported to the Data Safety Monitoring Committee. Tumor evaluation was performed at baseline and after every two cycles and responses were assessed according to RECIST version 1.1. After six cycles, tumor evaluations were allowed every 3 cycles per physician discretion. […]
# [2] = test system: other solid tumors with a mutation in homologous recombination; test: Phase II clinical trial of talazoparib, best response by RECIST v.1.1, non-breast cancer cohort; settings: Non-Breast Cancer (N = 7), 1 mg orally daily
# Method: as §1
# [3] = test system: HER2-negative advanced or metastatic breast cancer with a non-BRCA1/2 mutation in homologous recombination; test: Phase II clinical trial of talazoparib, best response by RECIST v.1.1, breast cancer cohort; settings: Breast Cancer (N = 13), 1 mg orally daily
# Method: as §1
# [4] = Combined (N = 20), 1 mg orally daily, RECIST v.1.1
structure (smiles),measurement,setting,value
"Cn1ncnc1[C@H]1c2n[nH]c(=O)c3cc(F)cc(c23)N[C@@H]1c1ccc(F)cc1 [talazoparib, (8S,9R)-5-fluoro-8-(4-fluorophenyl)-9-(1-methyl-1H-1,2,4-triazol-5-yl)-8,9-dihydro-2H-pyrido[4,3,2-de]phthalazin-3(7H)-one]",ORR (CR + PR),"[1]; Combined (N = 20), 1 mg orally daily, 95% CI: 6-44%",4 (20%); n (%)
same,CBR (CR + PR + SD ≥ 6 mos),"[1]; Combined (N = 20), 1 mg orally daily, 95% CI: 23-68%",9 (45%); n (%)
same,"Complete Response (CR), response rate",[1]; [4],0 (0%) n (%)
same,"Partial Response (PR), response rate",[1]; [4],4 (20%) n (%)
same,"Progressive Disease (PD), response rate",[1]; [4],6 (30%) n (%)
same,"Stable Disease (SD), response rate",[1]; [4],10 (50%) n (%)
same,partial responses observed in the first stage,[1]; first stage of 10 patients,two
same,CBR (CR + PR + SD ≥ 6 mos),[2],2 (29%); n (%)
same,ORR (CR + PR),[2]; 95% CI: 0-41%,0 (0%); n (%)
same,"Complete Response (CR), response rate",[2]; RECIST v.1.1,0 (0%) n (%)
same,"Partial Response (PR), response rate",[2]; RECIST v.1.1,0 (0%) n (%)
same,"Progressive Disease (PD), response rate",[2]; RECIST v.1.1,3 (43%) n (%)
same,"Stable Disease (SD), response rate",[2]; RECIST v.1.1,4 (57%) n (%)
same,ORR (CR + PR),[3]; 95% CI: 9-61%,4 (31%); n (%)
same,CBR (CR + PR + SD ≥ 6 mos),[3]; 95% CI: 21-81%,7 (54%); n (%)
same,"Complete Response (CR), response rate",[3]; RECIST v.1.1,0 (0%) n (%)
same,"Partial Response (PR), response rate",[3]; RECIST v.1.1,4 (31%) n (%)
same,"Progressive Disease (PD), response rate",[3]; RECIST v.1.1,3 (23%) n (%)
same,"Stable Disease (SD), response rate",[3]; RECIST v.1.1,6 (46%) n (%)
